ChEMBL document CHEMBL1155376, “Structure-activity relationships of norepinephrine reuptake inhibitors with benzothiadiazine dioxide or dihydrosulfostyril cores” (Bioorg Med Chem Lett, 2010)

Columns and labels:
[1] = target: T1, Sodium-dependent serotonin transporter (Homo sapiens, UniProt P31645); assay: Inhibition of serotonin uptake at human SERT expressed in human JAR
Target sequence in this assay (P31645 whole entry): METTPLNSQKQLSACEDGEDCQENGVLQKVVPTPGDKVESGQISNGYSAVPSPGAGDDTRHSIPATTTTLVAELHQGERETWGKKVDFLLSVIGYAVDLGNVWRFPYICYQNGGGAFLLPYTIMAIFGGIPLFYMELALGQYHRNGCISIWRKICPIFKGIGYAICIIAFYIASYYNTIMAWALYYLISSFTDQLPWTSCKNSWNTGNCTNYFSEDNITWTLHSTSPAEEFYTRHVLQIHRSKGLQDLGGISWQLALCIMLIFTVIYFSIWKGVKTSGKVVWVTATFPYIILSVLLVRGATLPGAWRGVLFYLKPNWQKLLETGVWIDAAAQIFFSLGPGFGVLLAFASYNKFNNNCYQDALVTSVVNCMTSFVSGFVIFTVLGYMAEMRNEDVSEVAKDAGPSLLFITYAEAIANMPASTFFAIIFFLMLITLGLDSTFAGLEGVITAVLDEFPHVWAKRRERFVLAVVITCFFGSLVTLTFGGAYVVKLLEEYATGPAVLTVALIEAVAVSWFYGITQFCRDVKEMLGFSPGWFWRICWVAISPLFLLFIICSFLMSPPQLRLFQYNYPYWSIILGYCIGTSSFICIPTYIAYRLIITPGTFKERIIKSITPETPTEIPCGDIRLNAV

[2] = target: T2, Sodium-dependent dopamine transporter (Homo sapiens, UniProt Q01959); assay: Displacement of [3H]WIN-35428 from human recombinant DAT expressed in CHO cells at 1 uM; assay type: cell-based
[3] = Half life in rat liver microsomes at 1 uM
[4] = target: Sodium-dependent noradrenaline transporter (Homo sapiens, UniProt P23975)
Description: Inhibition of norepinephrine uptake at human NET expressed in MDCK-Net6 cells

[5] = target: T2, Sodium-dependent dopamine transporter; assay: biochemical
[6] = target: T2, Sodium-dependent dopamine transporter; assay: Displacement of [3H]WIN-35428 from human recombinant DAT expressed in CHO cells at 10 uM; assay type: cell-based
[7] = target: T1, Sodium-dependent serotonin transporter; assay: Inhibition of serotonin uptake at human SERT expressed in human JAR at 6 uM
Target sequence in this assay (P31645 whole entry, looked up): as the sequence (P31645 whole entry) above

[8] = target: T1, Sodium-dependent serotonin transporter; assay: Inhibition of serotonin uptake at human SERT expressed in human JAR at 1 uM
Target sequence in this assay (P31645 whole entry, looked up): as the sequence (P31645 whole entry) above

Rattus norvegicus [9] = assay: Thermoregulatory activity in OVX-induced thermoregulatory dysfunction Sprague-Dawley rat model assessed as maximum reduction in tail-skin temperature at 3 mg/kg, po by implanted temperature and physical activity transmitter; assay type: functional
Rattus norvegicus [10] = assay: Thermoregulatory activity in OVX-induced thermoregulatory dysfunction Sprague-Dawley rat model assessed as mean reduction in tail-skin temperature at 3 mg/kg, po by implanted temperature and physical activity transmitter; assay type: functional
Rattus norvegicus [11] = assay: Duration of thermoregulatory activity in OVX-induced thermoregulatory dysfunction Sprague-Dawley rat model at 3 mg/kg, po by implanted temperature and physical activity transmitter; assay type: functional

Sodium-dependent noradrenaline transporter, sequence (P23975 whole entry): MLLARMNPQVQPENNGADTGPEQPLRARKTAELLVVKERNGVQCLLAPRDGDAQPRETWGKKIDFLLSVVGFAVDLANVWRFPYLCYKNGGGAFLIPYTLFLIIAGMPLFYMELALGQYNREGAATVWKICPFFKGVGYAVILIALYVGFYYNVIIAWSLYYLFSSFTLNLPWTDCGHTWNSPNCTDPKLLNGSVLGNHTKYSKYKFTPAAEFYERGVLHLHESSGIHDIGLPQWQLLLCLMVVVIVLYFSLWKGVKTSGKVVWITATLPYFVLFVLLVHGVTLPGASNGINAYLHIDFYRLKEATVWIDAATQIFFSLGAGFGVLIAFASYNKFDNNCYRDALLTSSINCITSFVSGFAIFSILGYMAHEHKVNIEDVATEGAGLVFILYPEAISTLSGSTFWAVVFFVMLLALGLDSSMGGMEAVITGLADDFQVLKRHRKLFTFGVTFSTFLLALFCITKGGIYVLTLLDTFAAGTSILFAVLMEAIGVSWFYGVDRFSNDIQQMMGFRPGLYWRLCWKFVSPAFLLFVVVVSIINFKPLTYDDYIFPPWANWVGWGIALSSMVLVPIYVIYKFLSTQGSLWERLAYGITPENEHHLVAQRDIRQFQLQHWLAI
T2 sequence (Q01959 whole entry): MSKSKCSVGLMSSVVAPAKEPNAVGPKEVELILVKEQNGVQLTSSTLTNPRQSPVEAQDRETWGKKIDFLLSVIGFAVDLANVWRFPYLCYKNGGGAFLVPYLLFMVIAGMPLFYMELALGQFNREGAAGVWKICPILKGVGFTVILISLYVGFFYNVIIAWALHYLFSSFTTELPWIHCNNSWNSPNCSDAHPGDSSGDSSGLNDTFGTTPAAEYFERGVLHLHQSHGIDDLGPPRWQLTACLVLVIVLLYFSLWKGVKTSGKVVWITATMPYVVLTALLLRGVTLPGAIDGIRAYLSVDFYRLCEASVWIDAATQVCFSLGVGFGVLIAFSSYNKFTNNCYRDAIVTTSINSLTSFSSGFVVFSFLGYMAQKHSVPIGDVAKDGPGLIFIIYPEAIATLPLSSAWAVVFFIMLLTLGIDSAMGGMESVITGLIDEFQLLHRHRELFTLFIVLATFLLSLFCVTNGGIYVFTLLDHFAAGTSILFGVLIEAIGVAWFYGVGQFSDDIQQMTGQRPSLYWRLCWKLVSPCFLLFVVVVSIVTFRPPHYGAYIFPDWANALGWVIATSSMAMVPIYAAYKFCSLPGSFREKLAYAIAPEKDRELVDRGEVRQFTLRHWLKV

IC50 [1]	half-life at 1 µM [3]	IC50 [4]	SMILES	also measured
2000 nM	–	–	CNCCCCN1Cc2ccccc2N(c2ccccc2F)S1(=O)=O	inhibition [2]: 18%
–	< 1 min	55 nM	CNCCCC1Cc2ccccc2N(c2ccccc2F)S1(=O)=O (single isomer, unassigned; enantiomer I) [listing 1 of 2 here]	–
–	> 30 min	25 nM	CNCCCC1Cc2cc(F)ccc2N(c2c(F)cccc2F)S1(=O)=O (single isomer, unassigned) [listing 1 of 2 here]	–
110 nM	–	–	CNCCCCN1Cc2cc(F)ccc2N(c2ccccc2F)S1(=O)=O	inhibition [2]: 25%
2500 nM	< 1 min	12 nM	CNCCCC1Cc2ccccc2N(c2ccccc2)S1(=O)=O.Cl (single isomer, unassigned; enantiomer II)	IC50 [5]: 6600 nM
–	–	–	CNCCCC1Cc2ccccc2N(c2c(F)cccc2F)S1(=O)=O (single isomer, unassigned; 16f)	inhibition [6]: 3.8%
–	–	–	CNCCCC1Cc2cc(F)ccc2N(c2ccccc2F)S1(=O)=O (single isomer, unassigned; enantiomer II)	inhibition [6]: 50%
–	–	140 nM	CNCCCN1Cc2ccccc2N(c2ccc(C)cc2)S1(=O)=O	–
6900 nM	3 min	88 nM	CNCCCC1Cc2ccccc2N(c2ccccc2)S1(=O)=O (single isomer, unassigned; enantiomer I)	–
5500 nM	–	–	CNCCCN1Cc2ccccc2N(c2ccccc2F)S1(=O)=O	inhibition [2]: -7%
–	–	–	CNCCCC1Cc2ccccc2N(c2c(F)cccc2F)S1(=O)=O (single isomer, unassigned; 16e) [listing 1 of 2 here]	inhibition [7]: 40%
–	–	–	CNCCCC1Cc2ccccc2N(c2ccccc2F)S1(=O)=O (single isomer, unassigned; enantiomer I) [listing 2 of 2 here]	inhibition [7]: 11%; inhibition [6]: 21%
–	–	–	CNCCN1Cc2ccccc2N(c2ccccc2F)S1(=O)=O	inhibition [2]: 24%; inhibition [8]: 24%
13300 nM	–	–	CNCCN1Cc2cc(F)ccc2N(c2ccccc2F)S1(=O)=O	inhibition [2]: -5%
–	< 1 min	3 nM	CNCCCC1Cc2ccccc2N(c2ccccc2F)S1(=O)=O.Cl (single isomer, unassigned; enantiomer II)	–
–	3 min	52 nM	CNCCCC1Cc2ccccc2N(c2c(F)cccc2F)S1(=O)=O (single isomer, unassigned; 16e) [listing 2 of 2 here]	–
–	–	–	CNCCCC1Cc2cc(F)ccc2N(c2ccccc2)S1(=O)=O (single isomer, unassigned; enantiomer I)	inhibition [7]: 85%
6000 nM	–	–	CNCCCN1Cc2ccccc2N(c2ccccc2)S1(=O)=O	inhibition [2]: 17%
1500 nM	–	–	CNCCCN1Cc2cc(F)ccc2N(c2ccccc2F)S1(=O)=O	inhibition [2]: 2.5%
–	–	–	CNCCCC1Cc2cc(F)ccc2N(c2c(F)cccc2F)S1(=O)=O (single isomer, unassigned) [listing 2 of 2 here]	inhibition [7]: 82%
340 nM	> 30 min	11 nM	CNCCCC1Cc2cc(F)ccc2N(c2ccccc2F)S1(=O)=O.Cl (single isomer, unassigned; enantiomer II)	Activity (Rattus norvegicus [9]): 2.4 °C; Activity (Rattus norvegicus [10]): 1.5 °C; Activity (Rattus norvegicus [11]): 6 h
600 nM	> 30 min	27 nM	CNCCCC1Cc2cc(F)ccc2N(c2c(F)cccc2F)S1(=O)=O.Cl (single isomer, unassigned; enantiomer II)	–
240 nM	–	–	CNCCCC1Cc2cc(F)ccc2N(c2ccccc2)S1(=O)=O (single isomer, unassigned; enantiomer II)	IC50 [5]: 4000 nM
–	–	–	CNCCCC1Cc2ccccc2N(c2ccccc2F)S1(=O)=O (single isomer, unassigned; enantiomer II)	inhibition [7]: 74%; inhibition [6]: 23%
8000 nM	4 min	5 nM	CNCCCC1Cc2ccccc2N(c2c(F)cccc2F)S1(=O)=O.Cl (single isomer, unassigned; 16f)	Activity (Rattus norvegicus [9]): 0 °C; Activity (Rattus norvegicus [10]): 0 °C
720 nM	> 30 min	93 nM	CNCCCC1Cc2cc(F)ccc2N(c2ccccc2F)S1(=O)=O (single isomer, unassigned; enantiomer I)	–
